From patent US8791130B2, “Aminopyrimidine derivatives as LRRK2 modulators” (Genentech, Inc., priority 2011, dated 2014)

Each molecule was assayed against LRRK2 (Homo sapiens (Human), UniProt Q5S007, G2019S) (assay: In Vitro LRRK2 LabChip Assay (LRRK2 Ki)).
Assay type: biochemical
Method: In Vitro LRRK2 LabChip Assay This assay was used to determine a compound's potency in inhibiting activity of LRRK2 by determining, Kiapp, IC50, or percent inhibition values. In a polypropylene plate, LRRK2, fluorescently-labeled peptide substrate, ATP and test compound were incubated together. Using a LabChip 3000 (Caliper Life Sciences), after the reaction the substrate was separated by capillary electrophoresis into two populations: phosphorylated and unphosphorylated. The relative amounts of each were quantitated by fluorescence intensity. LRRK2 Ki was determined according to the equation: […]))). Ki values in Table 4 and elsewhere herein are shown in μM. […] Substrate: 5[…] Non-binding plate: 384 well clear V-bottom polypropylene plates (Greiner cat #781280). ATP: 10 mM ATP (Cell Signaling cat #9804). Triton X-100: Triton X-100. Brij-35: Brij-35 (Pierce cat #20150). […] DMSO: DMSO (Sigma cat #34869-100 ML). […] Compound Plate Preparation: For serial dilutions, 34.6 μl DMSO was added to columns 3-24. For the assay controls, 37.5 μl DMSO was added to columns 1 and 2 of rows A and […]-028831 (Staurosporine) was added to columns 1 and 2, row B. […] A Precision instrument was used to perform 1:3.16 serial dilutions (“PLK_BM_serial_halflog”). ATP Preparation: ATP was diluted to 282.1 μM in Complete Kinase Buffer (final concentration was 130 μM). […] Assay Procedure: To a 50 μl polypropylene plate, 5 μl/well buffer/substrate was added by hand to Blank wells. A Biomek FX was used to start the kinase reaction (“PLK SAR 23 ATP”). […] 5 μl/well kinase/substrate in Assay Plate; The plate was incubated for 2 hours in the dark. Biomek FX was used to stop the kinase reaction (“PLK Stop”), and 10 μl/well Stop solution was added to the Assay Plate.

Chain of LRRK2 (Q5S007 970-2527 G2019S): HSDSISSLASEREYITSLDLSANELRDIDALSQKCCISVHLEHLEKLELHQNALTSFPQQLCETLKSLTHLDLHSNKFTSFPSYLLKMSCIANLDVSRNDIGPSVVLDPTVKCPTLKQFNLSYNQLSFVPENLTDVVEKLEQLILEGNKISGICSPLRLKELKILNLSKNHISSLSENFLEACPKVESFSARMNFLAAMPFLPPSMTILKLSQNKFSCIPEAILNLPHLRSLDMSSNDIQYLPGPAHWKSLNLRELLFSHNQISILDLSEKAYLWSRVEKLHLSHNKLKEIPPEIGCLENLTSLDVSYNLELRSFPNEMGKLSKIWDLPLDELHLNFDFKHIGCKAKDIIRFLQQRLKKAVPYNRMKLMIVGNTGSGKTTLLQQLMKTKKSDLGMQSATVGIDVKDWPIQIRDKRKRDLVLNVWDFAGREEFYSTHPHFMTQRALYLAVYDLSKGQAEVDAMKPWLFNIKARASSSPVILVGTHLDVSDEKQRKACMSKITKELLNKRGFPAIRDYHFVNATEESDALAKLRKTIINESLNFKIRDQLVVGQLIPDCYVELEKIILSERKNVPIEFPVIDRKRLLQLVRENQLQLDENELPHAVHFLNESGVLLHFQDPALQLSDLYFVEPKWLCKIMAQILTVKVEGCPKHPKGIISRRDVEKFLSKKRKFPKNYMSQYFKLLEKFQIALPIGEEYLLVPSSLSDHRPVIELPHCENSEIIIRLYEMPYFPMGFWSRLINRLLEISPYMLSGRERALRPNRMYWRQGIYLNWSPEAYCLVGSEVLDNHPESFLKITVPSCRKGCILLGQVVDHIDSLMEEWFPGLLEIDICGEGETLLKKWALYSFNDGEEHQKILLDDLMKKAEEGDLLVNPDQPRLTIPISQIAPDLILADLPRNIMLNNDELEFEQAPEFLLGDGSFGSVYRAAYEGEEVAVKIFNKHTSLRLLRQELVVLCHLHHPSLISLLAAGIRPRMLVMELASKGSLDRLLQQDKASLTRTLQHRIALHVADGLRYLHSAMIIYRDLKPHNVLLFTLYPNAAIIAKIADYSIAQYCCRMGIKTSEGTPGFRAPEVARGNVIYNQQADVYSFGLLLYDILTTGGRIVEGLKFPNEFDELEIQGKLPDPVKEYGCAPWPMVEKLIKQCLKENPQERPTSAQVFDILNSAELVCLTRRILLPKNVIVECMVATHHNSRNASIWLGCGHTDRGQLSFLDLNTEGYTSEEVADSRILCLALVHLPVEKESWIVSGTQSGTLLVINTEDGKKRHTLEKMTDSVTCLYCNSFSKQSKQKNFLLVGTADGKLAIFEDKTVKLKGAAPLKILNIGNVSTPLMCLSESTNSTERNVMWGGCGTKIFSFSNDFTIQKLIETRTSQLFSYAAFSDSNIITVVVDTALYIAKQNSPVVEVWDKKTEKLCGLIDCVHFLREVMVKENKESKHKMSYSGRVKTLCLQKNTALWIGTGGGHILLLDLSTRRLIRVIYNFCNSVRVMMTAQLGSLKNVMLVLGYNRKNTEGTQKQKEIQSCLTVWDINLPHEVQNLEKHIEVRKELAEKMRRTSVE

| SMILES | Ki [nM] |
| --- | --- |
| CNc1nc(Nc2ccc(-c3nnnn3C)cc2OC)ncc1C(F)(F)F [Compound 20, N^2-(2-methoxy-4-(1-methyl-1H-tetrazol-5-yl)phenyl)-N^4-methyl-5-(trifluoromethyl) pyrimidine-2,4-diamine] | 3 |
| CNc1nc(Nc2cc(OC)c(-c3cncn3C)cc2Cl)ncc1C(F)(F)F [Compound 21, N^2-(2-chloro-5-methoxy-4-(1-methyl-1H-imidazol-5-yl)phenyl)-N^4-methyl-5-(trifluoromethyl) pyrimidine-2,4-diamine] | 3 |
| CNc1nc(Nc2cc(F)c(-c3nnnn3C)cc2OC)ncc1C(F)(F)F [Compound 22, N^2-(5-fluoro-2-methoxy-4-(1-methyl-1H-tetrazol-5-yl)phenyl)-N^4-methyl-5-(trifluoromethyl) pyrimidine-2,4-diamine] | 10 |
| CNc1nc(Nc2ccc(-c3cnnn3C)cc2OC)ncc1Cl [Compound 23, 5-chloro-N^2-(2-methoxy-4-(1-methyl-1H-1,2,3-triazol-5-yl)phenyl)-N^4-methylpyrimidine-2,4-diamine] | 3 |
| CNc1nc(Nc2cc(OC)c(-c3c(C)nn(C)c3C)cc2Cl)ncc1C(F)(F)F [Compound 24, N^2-(2-chloro-5-methoxy-4-(1,3,5-trimethyl-1H-pyrazol-4-yl)phenyl)-N^4-methyl-5-(trifluoromethyl) pyrimidine-2,4-diamine] | 3 |
| CNc1nc(Nc2ccc(-c3ccnn3C)cc2OC)ncc1C(F)(F)F [Compound 25, N^2-(2-methoxy-4-(1-methyl-1H-pyrazol-5-yl)phenyl)-N^4-methyl-5-(trifluoromethyl) pyrimidine-2,4-diamine] | 1 |
| CNc1nc(Nc2ccc(-c3c(C)noc3C)cc2OC)ncc1C(F)(F)F [Compound 26, N^2-(4-(3,5-dimethylisoxazol-4-yl)-2-methoxyphenyl)-N^4-methyl-5-(trifluoromethyl) pyrimidine-2,4-diamine] | 1 |
| CNc1nc(Nc2ccc(-n3cnnn3)cc2OC)ncc1C(F)(F)F [Compound 27, N^2-(2-methoxy-4-(1H-tetrazol-1-yl)phenyl)-N^4-methyl-5-(trifluoromethyl) pyrimidine-2,4-diamine] | 2 |
| CNc1nc(Nc2cc(OC)c(-c3ccnn3C)cc2Cl)ncc1C(F)(F)F [Compound 28, N^2-(2-chloro-5-methoxy-4-(1-methyl-1H-pyrazol-5-yl)phenyl)-N^4-methyl-5-(trifluoromethyl) pyrimidine-2,4-diamine] | 5 |
| CCNc1nc(Nc2cc(F)c(-c3nnc(C)o3)cc2OC)ncc1C(F)(F)F [Compound 29, N^4-ethyl-N^2-(5-fluoro-2-methoxy-4-(5-methyl-1,3,4-oxadiazol-2-yl)phenyl)-5-(trifluoromethyl) pyrimidine-2,4-diamine] | 7 |
| CNc1nc(Nc2cc(F)c(-c3nnc(C)o3)cc2OC)ncc1C(F)(F)F [Compound 30, N^2-(5-fluoro-2-methoxy-4-(5-methyl-1,3,4-oxadiazol-2-yl)phenyl)-N^4-methyl-5-(trifluoromethyl) pyrimidine-2,4-diamine] | 12 |
| CNc1nc(Nc2cc(OC)c(-c3nc(C)no3)cc2Cl)ncc1C(F)(F)F [Compound 31, N^2-(2-chloro-5-methoxy-4-(3-methyl-1,2,4-oxadiazol-5-yl)phenyl)-N^4-methyl-5-(trifluoromethyl) pyrimidine-2,4-diamine] | 41 |
| CNc1nc(Nc2cc(OC)c(-c3cnn(C)c3)cc2Cl)ncc1C(F)(F)F [Compound 32, N^2-(2-chloro-5-methoxy-4-(1-methyl-1H-pyrazol-4-yl)phenyl)-N^4-methyl-5-(trifluoromethyl) pyrimidine-2,4-diamine] | 11 |
| CNc1nc(Nc2ccc(-c3nnc(C)o3)cc2Cl)ncc1Cl [Compound 33, 5-chloro-N^2-(2-chloro-4-(5-methyl-1,3,4-oxadiazol-2-yl)phenyl)-N^4-methylpyrimidine-2,4-diamine] | 30 |
